What all share (assay type): cell-based, murine
For one assay, the system named is mdx myotubes. Kind of assay: Fusion index in mdx myotubes. To be noted: mdx myotubes (FIG. 12c-d).
The test system of assay [1] is hSSPN-EGFP myotubes (human sarcospan promoter reporter in C2C12). Kind of assay: hSSPN-EGFP reporter myotube assay (high-content imaging). The protocol:
C2C12 immortalized murine myoblasts cultured in growth media consisting of DMEM (Gibco) with 20% Fetal Bovine Serum (Sigma-Aldrich) at 37° C. with 5% CO2 were transfected with the hSSPN-EGFP or hSSPN-Luciferase linearized plasmids using Lipofectamine 3000 Transfection Reagent (Thermo Fisher Scientific). Transfected cells were selected using 800 μg/ml of G418 (Sigma-Aldrich) for 4 weeks to generate stable cell lines expressing reporter protein under control of the human SSPN promoter.
hSSPN-EGFP myoblasts were seeded at 500 cells per well in 50 μl of growth media in 384-well black, clear bottom microplates (Greiner) using a Multidrop 384 (Thermo Fisher Scientific) and incubated for 3 days. Upon reaching confluency, the growth media was replaced with 50 μl of differentiation media consisting of DMEM with 2% horse serum (Sigma-Aldrich) using an EL406 combination washer dispenser (Biotek). At day 2 of differentiation, the media on the cells was aspirated, left with a residual volume of 10 μl, and replaced with 30 μl of fresh differentiation media. 0.5 μl of small molecule in DMSO or DMSO alone (for vehicle and positive control wells) was added to each well using a Biomek Fx (Beckman). To ensure proper mixing of the DMSO, 50 μl of additional differentiation media was added to all wells except the positive control treated wells, which instead received 50 μl of media containing insulin transferrin selenium (ITS, Gibco) to reach a final concentration of 1% ITS. The final concentration of drug in each treated well was 5.5 μM in 0.55% DMSO and 0.55% DMSO for vehicle and positive control treated wells. After 48 hours of incubation, the media was replaced with Fluorobrite DMEM (Gibco) and each plate was imaged using ImageXpress Micro Confocal High Content Imaging System (Molecular Devices). The fluorescent intensity of imaged cells was determined using MetaXpress Analysis software (Molecular Devices). Analysis setting were as follows: top hat (size: 12, filter shape: circle), adaptive threshold (source: top hat, minimum width: 10, maximum width: 800, intensity above local background: 500), filter mask (filter type: minimum area filter, minimum value: 500). […]

A further assay concerns SSPN protein. The experiment in a line: SSPN protein immunoblot in C2C12 wild-type myotubes. The conditions noted are these: C2C12 cells, 1 μM-10 μM, 48 hours, immunoblot normalized to GAPDH (FIG. 10e). The protocol: Cells were treated for 48 hours beginning at day 2 of differentiation with DMSO (vehicle control, ATCC), felodipine (Sigma), nilvadipine (Sigma), alloxazine (Sigma), GW5074 (Sigma), methylthioadenosine (Santa Cruz Biotechnology), or ezutromid (Cayman Chemicals) diluted in cell type specific differentiation media at doses listed in the figures. For gene expression studies, each treatment was performed in duplicate. For protein studies, each treatment was performed with single or double replicates. C2C12 murine myotubes treated for 48 hours were lysed using RIPA buffer (Thermo Fisher Scientific) containing a protease inhibitor cocktail (0.6 μg/ml pepstatin A, 0.5 μg/ml aprotinin, 0.5 μg/ml leupeptin, 0.1 mM PMSF, 0.75 mM benzamidine, 5 μM calpain I inhibitor, 5 μM calpeptin). […] The supernatant was collected, quantified for protein concentration using the DC protein assay (Bio-Rad), and normalized to 2 mg/ml in water and Laemmli sample buffer with a final concentration of 10% glycerol (Sigma-Aldrich), 5% beta-mercaptoethanol (Sigma-Aldrich), 3% sodium dodecyl sulfate (Sigma-Aldrich), and 0.05% bromophenol blue (Sigma-Aldrich). […] Autoradiography films were developed using a SRX-101A tabletop processor (Konica Minolta), scanned to a digital file, and analyzed by densitometry of bands using ImageJ version 1.51s. […]

In the case of `CCOC(=O)C1=C(C)NC(C)=C(C(=O)OC)C1c1cccc(Cl)c1Cl` (stereo not drawn) [Felodipine, 5-O-ethyl 3-O-methyl 4-(2,3-dichlorophenyl)-2,6-dimethyl-1,4-dihydropyridine-3,5-dicarboxylate], the “fusion index (nuclei in myosin heavy chain positive area/total nuclei in field)” value in the assay with mdx myotubes is listed as “does not increase fusion index”. The “fluorescence intensity over vehicle, primary screen hit call” value in assay [1] (primary screen of 3,200 molecules, 5.5 μM, 48 hours, n=1, hit cutoff 1.4-fold) is “hits”. Further, the “hSSPN-EGFP RFU, Plate 1” value in assay [1] (retest of screen hits at 5.5 μM, Plate 1, n=24 per plate) is 1.4 RFU. The “hSSPN-EGFP RFU, Plate 2” value in assay [1] (retest of screen hits at 5.5 μM, Plate 2, n=24 per plate) is 1.4 RFU. For the same compound, the SSPN protein levels entry with SSPN protein is reported as “increases sarcospan protein levels”; in the assay with SSPN protein (listed as felodipine), “increase in SSPN protein levels”.

These data come from US12109204B2, “Methods for treating muscular dystrophies” (The Regents of the University of California, priority 2018, dated 2024).
